# In US10626094B2 (La Jolla Institute of Allergy & Immunology, priority 2014, dated 2020):
# Target: LMPTP-A (Low Molecular Weight Protein Tyrosine Phosphatase-A) enzyme (Homo sapiens (Human), UniProt P24666)
# Test: LMPTP primary screening / LMPTP (OMFP) enzyme inhibition assay, fluorescence intensity
# Format: biochemical
# Conditions: LMPTP-A, OMFP substrate, method of Example 2; read-out: IC50
# Summary of the method: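 Single-concentration screen, test compounds 20 μM final, […]. Enzyme (0.625 nM) and OMFP (400 μM) react 50 min at room temp, dark, in Bis-Tris buffer pH 6.0 containing DTT 1 mM and Triton X-100 0.01%. Read-out: fluorescence intensity.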
# Sequence of LMPTP-A (Low Molecular Weight Protein Tyrosine Phosphatase-A) enzyme (P24666 whole entry): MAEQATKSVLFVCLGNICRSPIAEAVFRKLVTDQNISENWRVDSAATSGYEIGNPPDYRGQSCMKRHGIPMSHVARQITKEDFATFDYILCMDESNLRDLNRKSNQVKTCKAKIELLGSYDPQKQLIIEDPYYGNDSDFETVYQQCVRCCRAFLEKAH
row,IC50 [nM],Compound
1,801 to 5000,FC(F)(F)c1cc(Cl)ccc1-c1cc(NCCCN2CCCCC2)c2ccccc2n1 [Compound I119]
2,801 to 5000,CC(=O)Nc1ccc(-c2cc(NCCCN3CCCCC3)c3ccccc3n2)cc1 [Compound I117]
3,801 to 5000,c1ccc2c(NCCCN3CCCCC3)cc(-c3cncnc3)nc2c1 [Compound I143]
4,801 to 5000,"COc1ccc(CNc2cc(-c3ccc(OC)cc3)nc3ccccc23)cc1 [Compound G79, [2-(4-methoxyphenyl)(4-quinolyl)][(4-methoxyphenyl)methyl]amine]"
5,801 to 5000,"[2-(3,4-dichlorophenyl)(4-quinolyl)](3-piperidylpropyl)amine [Compound I138]"
6,> 5000,"CN(C)Cc1ccc(Nc2cc(-c3ccc(C(F)(F)F)cc3C(F)(F)F)nc3ccccc23)cc1 [Compound I54, {[4-({2-[2,4-bis(trifluoromethyl)phenyl](4-quinolyl)}amino)phenyl]methyl}dimethylamine]"
7,801 to 5000,COc1ncccc1-c1cc(NCCCN2CCCCC2)c2ccccc2n1 [Compound I154]
8,200 to 800,c1cc2c3c(cc(-c4cc(NCCCN5CCCCC5)c5ccccc5n4)cc3c1)CC2 [Compound I256]
9,801 to 5000,O=C1Cc2ccc(-c3cc(NCCCN4CCCCC4)c4ccccc4n3)cc2N1 [Compound I221]
10,801 to 5000,Cc1nc(C)c(-c2cc(NCCCN3CCCCC3)c3ccccc3n2)s1 [Compound G20]
11,801 to 5000,COc1cccc(F)c1-c1cc(NCCCN2CCCCC2)c2ccccc2n1 [Compound I164]
12,801 to 5000,"COc1ccc(-c2cc(NCc3ccccc3C(F)(F)F)c3ccccc3n2)cc1 [Compound G80, [2-(4-methoxyphenyl)(4-quinolyl)]{[2-(trifluoromethyl)phenyl]methyl}amine]"
13,801 to 5000,"Clc1cccc(-c2cc(Nc3ccccc3CC3CCNCC3)c3ccccc3n2)c1 [Compound I21, [2-(3-chlorophenyl)(4-quinolyl)][2-(4-piperidylmethyl)phenyl]amine]"
14,801 to 5000,Fc1ccc(-c2cc(NCCCN3CCCCC3)c3ccccc3n2)c(C(F)(F)F)c1 [Compound I122]
15,801 to 5000,CC(C)C(=O)Nc1ccc(-c2cc(NCCCN3CCCCC3)c3ccccc3n2)cc1 [Compound I56]
16,801 to 5000,c1ccc2sc(-c3cc(NCCCN4CCCCC4)c4ccccc4n3)cc2c1 [Compound I140]
17,200 to 800,NCc1ccc(-c2cc(NCCCN3CCCCC3)c3ccccc3n2)cc1 [Compound I148]
18,801 to 5000,NC(=O)c1cccc(-c2cc(NCCCN3CCCCC3)c3ccccc3n2)c1 [Compound I123]
19,200 to 800,"COc1ccc(-c2cc(Nc3cccc(CN4CCCC4)c3)c3ccccc3n2)cc1 [Compound G50, [2-(4-methoxyphenyl)(4-quinolyl)][3-(pyrrolidinylmethyl)phenyl]amine]"
20,801 to 5000,Fc1ccc(-c2ccc(-c3cc(NCCCN4CCCCC4)c4ccccc4n3)cc2)cc1 [Compound I225]
21,801 to 5000,"N#Cc1cccc(Nc2cc(-c3ccccc3C(F)(F)F)nc3ccccc23)c1 [Compound G32, 3-[2-(2-Trifluoromethyl-phenyl)-quinolin-4-ylamino]-benzonitrile]"
22,200 to 800,NC(=O)c1ccc(-c2cc(NCCCN3CCCCC3)c3ccccc3n2)c(F)c1 [Compound I252]
23,801 to 5000,"CN(C)Cc1cc(CO)cc(Nc2cc(-c3cccc(Cl)c3)nc3ccccc23)c1 [Compound I45, (5-[(dimethylamino)methyl]-3-{[2-(3-chlorophenyl)(4-quinolyl)]amino}phenyl)methan-1-ol]"

row,IC50 [nM],Compound
1,801 to 5000,CSc1ccc(-c2cc(NCCCN3CCCCC3)c3ccccc3n2)cc1 [Compound I169]
2,801 to 5000,"COc1ccc(-c2cc(Nc3ccccc3)c3ccccc3n2)cc1 [Compound G35, [2-(4-Methoxy-phenyl)-quinolin-4-yl]-phenyl-amine]"
3,200 to 800,O=C(NCCCN1CCOCC1)c1ccc(-c2cc(NCCCN3CCCCC3)c3ccccc3n2)cc1 [Compound I192]
4,> 5000,"COc1ccc(-c2cc(Nc3cccc(C(F)(F)F)c3)c3ccccc3n2)cc1 [Compound G37, [2-(4-Methoxy-phenyl)-quinolin-4-yl]-(3-trifluoromethyl-phenyl)-amine]"
5,801 to 5000,"Clc1cccc(-c2cc(Nc3ccc(CN4CCCCC4)cc3)c3ccccc3n2)c1 [Compound I11, [2-(3-chlorophenyl)(4-quinolyl)][4-(piperidylmethyl)phenyl]amine]"
6,> 5000,"COc1ccc(-c2cc(NCCCN3CCCCC3)c3cc(C)ccc3n2)cc1 [Compound G24, [2-(4-methoxy-phenyl)-6-methyl-quinolin-4-yl]-(3-piperidin-1-yl-propyl)-amine]"
7,801 to 5000,"COc1ccc(-c2cc(NCCCN3CCCCC3)c3cc(F)ccc3n2)cc1 [Compound G30, [6-Fluoro-2-(4-methoxy-phenyl)-quinolin-4-yl]-(3-piperidin-1-yl-propyl)-amine]"
8,> 5000,C1=C(c2cc(NCCCN3CCCCC3)c3ccccc3n2)OCC1 [Compound I241]
9,801 to 5000,"COc1ccc(-c2cc(Nc3ccncc3)c3ccccc3n2)cc1 [Compound G65, [2-(4-methoxyphenyl)(4-quinolyl)]-4-pyridylamine]"
10,801 to 5000,"COc1ccc(-c2cc(NCCc3ccncc3)c3ccccc3n2)cc1 [Compound I201, [2-(4-methoxyphenyl)(4-quinolyl)](2-(4-pyridyl)ethyl)amine]"
11,200 to 800,c1ccc2c(NCCCN3CCCCC3)cc(-c3ccc4ccsc4c3)nc2c1 [Compound I78]
12,801 to 5000,"c1ccc2c(NCCCN3CCCCC3)cc(-c3ccoc3)nc2c1 [Compound G14, (2-Furan-3-yl-quinolin-4-yl)-(3-piperidin-1-yl-propyl)-amine]"
13,801 to 5000,methyl 3-{4-[(3-piperidylpropyl)amino]-2-quinolyl}benzoate [Compound I155]
14,200 to 800,CCOC(=O)CNC(=O)c1ccc(-c2cc(NCCCN3CCCCC3)c3ccccc3n2)cc1 [Compound I65]
15,801 to 5000,Cc1ccccc1-c1cc(NCCCN2CCCCC2)c2ccccc2n1 [Compound I159]
16,> 5000,"CN(C)c1cc(-c2ccc[nH]2)nc2ccccc12 [Compound G23, Dimethyl-[2-(1H-pyrrol-2-yl)-quinolin-4-yl]-amine]"
17,> 5000,"NC(=O)c1ccc(-c2cc(Nc3ccc(CC4CCNCC4)cc3)c3ccccc3n2)cc1 [Compound I220, 4-(4-{[4-(4-piperidylmethyl)phenyl]amino}-2-quinolyl)benzamide]"
18,801 to 5000,"COc1ccc(-c2cc(Nc3ccc(F)cc3)c3ccccc3n2)cc1 [Compound G39, (4-fluorophenyl)[2-(4-methoxyphenyl)(4-quinolyl)]amine]"
19,> 5000,CC(=O)Nc1ccccc1-c1cc(NCCCN2CCCCC2)c2ccccc2n1 [Compound I116]
20,200 to 800,N#CCCNC(=O)c1ccc(-c2cc(NCCCN3CCCCC3)c3ccccc3n2)cc1 [Compound I265]
21,200 to 800,CC(=O)NCc1ccc(-c2cc(NCCCN3CCCCC3)c3ccccc3n2)cc1 [Compound I255]
22,801 to 5000,CCOC(=O)c1cccc(-c2cc(NCCCN3CCCCC3)c3ccccc3n2)c1 [Compound I137]
23,200 to 800,N#CCCNC(=O)c1ccc(-c2cc(NCCCN3CCCCC3)c3ccccc3n2)cc1 [Compound I59]

# Same assay, conditions: Table 1 quinazolinone series; CP sample (cherry pick of DMSO solution from NIH MLSMR); read-out: LMPTP (OMFP) (IC50)
row,IC50 [nM],Compound
1,7120,Cc1cccc(-c2nc(NCCCN3CCOCC3)c3ccccc3n2)c1 [Entry 1]

# Same assay, conditions: Table 1 quinazolinone series; P sample (purchased from commercial sources); read-out: LMPTP (OMFP) (IC50)
row,IC50 [nM],Compound
1,13500,Cc1cccc(-c2nc(NCCCN3CCOCC3)c3ccccc3n2)c1 [Entry 1]

# Same assay, conditions: initial screening hits (Scheme 4); read-out: IC50
row,IC50 [nM],Compound
1,7120,Cc1cccc(-c2nc(NCCCN3CCOCC3)c3ccccc3n2)c1 [Entry 1]

# Same assay, conditions: read-out: LMPTP (OMFP) IC50
row,IC50 [nM],Compound
1,13500,Cc1cccc(-c2nc(NCCCN3CCOCC3)c3ccccc3n2)c1 [Entry 1]
